Measurements published in patent publication US7858637B2, “Administration of TLR7 ligands and prodrugs thereof for treatment of infection by hepatitis C virus” (priority 2003, dated 2010).

Tested on: human peripheral blood mononuclear cells (PBMC)
Assay: PBMC assay of interferon alpha release (masking)
Type: cell-based
Settings: Homo sapiens, PBMC; Table 9; 100 μM; 24 hours exposure; same blood donor; read-out: Amount of INFa relative to that induced by isatoribine at 100 μM
Method: A typical experiment would use human peripheral blood mononuclear cells (PBMC) isolated from a healthy donor and placed in replicate cell culture wells; typically, 2×10^6 to 5×10^6 cells are placed in each well. The PBMC are incubated in the absence of test compounds at 37° C. in a humidified atmosphere containing 5% CO2 for 24 hours to allow stabilization to the culture conditions, and then 100 micromolar isatoribine, the TLR7 ligand and a corresponding TLR7 ligand prodrug are added to separate wells containing PBMC from the same donor; untreated controls are included. The concentrations of TLR7 ligand and TLR7 ligand prodrug may be varied to suit the particular experiment, and the PBMC cultures are then incubated at 37° C. in a humidified atmosphere containing 5% CO2 for a period of time ranging from two hours to 48 hours. Samples of cell culture supernate media are taken during the incubation. These are assayed for cytokine production by ELISA. Additionally the amount of TLR7 ligand and TLR7 ligand prodrug remaining at the end of the incubation may be assayed by LC-MS. Cytokine production is calculated relative to production in the isatoribine control, following subtraction of the cytokine production in untreated controls.
Thus, if the TLR7 ligand generates more interferon alpha (a conveniently measured cytokine) than does the corresponding TLR7 ligand prodrug after a similar duration of exposure and concentration, the TLR7 ligand prodrug may be deemed a “masked” TLR7 ligand prodrug.

Question: How did the Emax at 100 µM turn out when `Nc1nc2c(sc(=O)n2[C@@H]2O[C@H](CO)[C@@H](O)[C@H]2O)c(=O)[nH]1` [Compound 21, 7-thia-8-oxoguanosine] was run?
Answer: 100%
